Assay results published in ChEMBL document CHEMBL1201862, “PubChem BioAssay data set” (2004).
Counter-ions that a name gives are not always drawn.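 Compound exposure: 48 hours, 5 concentrations, 96-well plates. GI50 = concentration required for 50% inhibition of growth.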 The source made the active and inactive calls. Cut-off read from the data, not from the text of the source: active = GI50 up to about 1.1 µM and inactive = higher. Square brackets hold non-standard residues; d marks the D form. Peptide text beside a SMILES is read from it.

Tests used:
Experiment in all cases: NCI anticancer screen, dose series, 48 h
MDA-N = tested on: MDA-N
COLO 205 = tested on: COLO 205
HL-60 = tested on: HL-60
MDA-MB-435 = tested on: MDA-MB-435
SF-539 = tested on: SF-539
TK-10 = tested on: TK-10
RXF 393 = tested on: RXF 393
K562 = tested on: K562
T47D = tested on: T47D
DU-145 = tested on: DU-145
NCI-H226 = tested on: NCI-H226
OVCAR-3 = tested on: OVCAR-3
A549 = tested on: A549
M14 = tested on: M14
MDA-MB-231 = tested on: MDA-MB-231
OVCAR-8 = tested on: OVCAR-8
A498 = tested on: A498
BT-549 = tested on: BT-549
SK-OV-3 = tested on: SK-OV-3

Measured: GI50

Cc1cc(O)c(C(O)c2ccccn2)cc1O (configuration not stated)
inactive: MDA-N 18.7 µM | COLO 205 10 µM | HL-60 11.1 µM | MDA-MB-435 18.7 µM | SF-539 38.8 µM | TK-10 16.6 µM | RXF 393 16.3 µM | K562 3.77 µM | T47D > 10 µM | DU-145 37.9 µM | NCI-H226 > 10 µM | OVCAR-3 15 µM | A549 81.1 µM | M14 20.2 µM | MDA-MB-231 17.5 µM | OVCAR-8 18.8 µM

NCCCCN [PUTRESCINE HYDROCHLORIDE]
inactive: COLO 205 > 100 µM | HL-60 > 100 µM | MDA-MB-435 8.36 µM | SF-539 > 100 µM | A498 > 100 µM | TK-10 > 100 µM | RXF 393 > 100 µM | K562 > 100 µM | T47D > 100 µM | DU-145 > 100 µM | BT-549 > 100 µM | SK-OV-3 > 100 µM | NCI-H226 > 100 µM | OVCAR-3 > 100 µM | A549 > 100 µM | M14 > 100 µM | MDA-MB-231 > 100 µM | OVCAR-8 > 100 µM

N=C(N)NCCC[C@H]1NC(=O)[C@@H](CCC(=O)O)NC(=O)[C@@H](CC(=O)O)NC(=O)[C@@H](CCC(=O)O)NC(=O)[C@H](Cc2c[nH]c3ccccc23)NC1=O (cyclo(W[dE][dD][dE][dR]))
inactive: COLO 205 > 7.5 µM | HL-60 > 7.5 µM | MDA-MB-435 > 7.5 µM | SF-539 > 7.5 µM | A498 > 7.5 µM | TK-10 > 7.5 µM | RXF 393 > 7.5 µM | K562 > 7.5 µM | T47D > 7.5 µM | DU-145 > 7.5 µM | BT-549 > 7.5 µM | SK-OV-3 > 7.5 µM | NCI-H226 > 7.5 µM | OVCAR-3 > 7.5 µM | A549 > 7.5 µM | M14 > 7.5 µM | MDA-MB-231 > 7.5 µM | OVCAR-8 > 7.5 µM

COc1cc2c(cc1OC)CC(=O)c1cc(OC)c(OC)cc1/C=C\2
inactive: MDA-N 2.8 µM | COLO 205 11.1 µM | HL-60 2.24 µM | MDA-MB-435 3.92 µM | SF-539 > 12.5 µM | A498 > 12.5 µM | TK-10 > 12.5 µM | RXF 393 > 12.5 µM | K562 3.45 µM | DU-145 > 12.5 µM | SK-OV-3 > 12.5 µM | NCI-H226 > 12.5 µM | OVCAR-3 > 12.5 µM | A549 > 12.5 µM | M14 9.57 µM | MDA-MB-231 > 12.5 µM | OVCAR-8 > 12.5 µM

CC(O)c1c2c(cc3c1CC1(C3)Cc3cc4c(c(C(C)O)c3C1)CCC4)CCC2 (configuration not stated)
inactive: COLO 205 13.4 µM | HL-60 4.76 µM | MDA-MB-435 15.8 µM | SF-539 22.4 µM | A498 14.9 µM | TK-10 27.7 µM | RXF 393 14.9 µM | K562 9.59 µM | T47D 11.9 µM | SK-OV-3 23.2 µM | NCI-H226 15.6 µM | OVCAR-3 12.4 µM | A549 13.6 µM | M14 18.6 µM | MDA-MB-231 16.8 µM | OVCAR-8 46.2 µM

N#CC1=C(N)OC(c2cccc([N+](=O)[O-])c2)C1(C#N)C#N (configuration not stated)
inactive: MDA-N 23.9 µM | COLO 205 17 µM | HL-60 11.9 µM | MDA-MB-435 23.3 µM | SF-539 21.8 µM | A498 19.7 µM | TK-10 19.1 µM | RXF 393 20 µM | K562 26.2 µM | T47D 17.4 µM | DU-145 17.3 µM | SK-OV-3 70.3 µM | NCI-H226 30.8 µM | A549 34.8 µM | M14 25.8 µM | MDA-MB-231 > 10 µM | OVCAR-8 29.4 µM

CC(=O)/N=C1/N(/C=C2\C(=O)Oc3ccccc3C2=O)C(=O)/C(=C/c2ccccc2Cl)N1C
inactive: MDA-N > 100 µM | COLO 205 > 100 µM | HL-60 > 100 µM | MDA-MB-435 > 100 µM | SF-539 > 100 µM | RXF 393 > 100 µM | K562 > 100 µM | T47D > 100 µM | DU-145 > 100 µM | SK-OV-3 > 100 µM | NCI-H226 > 100 µM | A549 > 100 µM | M14 > 100 µM | MDA-MB-231 > 100 µM | OVCAR-8 > 100 µM
active: A498 0.564 µM

NC(=S)N/N=C(/CCN1CCCC1)CC(C1=C(O)C2=CCCCC2OC1=O)c1ccccc1 (configuration not stated)
inactive: COLO 205 54.1 µM | HL-60 > 100 µM | SF-539 > 100 µM | A498 > 100 µM | TK-10 > 100 µM | RXF 393 > 100 µM | K562 > 100 µM | SK-OV-3 > 100 µM | NCI-H226 > 100 µM | OVCAR-3 > 100 µM | A549 > 100 µM | M14 > 100 µM | OVCAR-8 > 100 µM

COc1cc2cccc(/N=C\c3cccc(OC)c3OC(C)C)c2cc1OC
inactive: COLO 205 36.2 µM | A498 56.9 µM | TK-10 25.6 µM | K562 15.6 µM | SK-OV-3 25.2 µM | OVCAR-3 19.4 µM | A549 29.7 µM | M14 17.9 µM | OVCAR-8 21.5 µM

O=C1/C(=C/c2ccco2)N=C2Sc3c([nH]cnc3=O)N12
inactive: MDA-N > 100 µM | COLO 205 > 100 µM | HL-60 > 100 µM | MDA-MB-435 > 100 µM | SF-539 > 100 µM | A498 > 100 µM | TK-10 > 100 µM | RXF 393 > 100 µM | K562 > 100 µM | T47D > 100 µM | DU-145 > 100 µM | SK-OV-3 > 100 µM | NCI-H226 > 100 µM | OVCAR-3 > 100 µM | A549 > 100 µM | M14 > 100 µM | MDA-MB-231 > 100 µM | OVCAR-8 > 100 µM

c1ccc2c(c1)ccc1nc3ccccn3c12
inactive: COLO 205 > 100 µM | HL-60 > 100 µM | MDA-MB-435 > 100 µM | SF-539 > 100 µM | TK-10 > 100 µM | RXF 393 > 100 µM | K562 > 100 µM | T47D > 100 µM | DU-145 > 100 µM | BT-549 > 100 µM | SK-OV-3 35.2 µM | NCI-H226 > 100 µM | OVCAR-3 > 100 µM | A549 > 100 µM | M14 > 100 µM | OVCAR-8 > 100 µM

C1CCC(CC2CCC(NC3=NCCO3)CC2)CC1 (configuration not stated)
inactive: MDA-N 20.3 µM | COLO 205 14.2 µM | HL-60 17.9 µM | MDA-MB-435 17.4 µM | SF-539 16.8 µM | A498 26 µM | TK-10 15.3 µM | RXF 393 18.3 µM | K562 14 µM | T47D 24.4 µM | DU-145 30 µM | SK-OV-3 20.9 µM | NCI-H226 18.8 µM | OVCAR-3 15.4 µM | A549 32.8 µM | M14 18.9 µM | MDA-MB-231 19.4 µM | OVCAR-8 17.1 µM
